From article PMC12396409, “Screening and hit evaluation of a microbial metabolite library against the pathogenic Plasmodium falciparum and Toxoplasma gondii parasites” (International Journal for Parasitology: Drugs and Drug …, 2025)
Like-named read-outs stand apart in the source and are kept apart here. *1 amine or outer side, *2 acyl side, *3 side chain or, on linkers, in order; H or OH if unused. Where a SMILES comes first, the peptide text is derived from it. Bridges are numbered along the chain shown (N, C = ends). Roman numbers before positions name the chains, in order. [ ]: non-standard residue; d: D form. Actinocin(9to1) = Cc1c2oc3c(C)ccc(C(=O)[*:1])c3nc-2c(C(=O)[*:2])c(N)c1=O; NMeV = CN[C@H](C(=O)O)C(C)C; Sar = CNCC(=O)O

Tests used:
[1] = test system: P. falciparum 3D7 parasites; assay: P. falciparum growth inhibition assay, 2-cycle (120 h treatment), delayed-death screen and dose-response; format: cell-based, Plasmodium falciparum; settings: for activity at 2 µg/mL: Plasmodium falciparum, 3D7
[2] = test system: P. falciparum 3D7 parasites; assay: P. falciparum growth inhibition assay, 1-cycle (72 h treatment), SYBR DNA staining (library screen at 2 μg/mL and dose-response); format: cell-based, Plasmodium falciparum; settings: 72 h; for activity at 2 µg/mL: Plasmodium falciparum, 3D7
[3] = test system: T. gondii RH strain (RH-Tub-eYFP) tachyzoites; assay: microbe, parasite or virus in culture; format: cell-based, Toxoplasma gondii; settings: 72 h; for percent parasite growth at 2 µg/mL: Toxoplasma gondii
[4] = P. falciparum, 120 h, screen at 2 μg/mL, replicate 1
[5] = P. falciparum, 120 h, screen at 2 μg/mL, replicate 2
[6] = P. falciparum, screen at 2 μg/mL, replicate 1
[7] = P. falciparum, screen at 2 μg/mL, replicate 2
[8] = T. gondii, screen at 2 μg/mL, replicate 1
[9] = T. gondii, screen at 2 μg/mL, replicate 2
[10] = T. gondii, 2 μg/mL, values are growth (% of control)
[11] = library screen at 2 μg/mL, 120 h, % growth, replicate 1
[12] = library screen at 2 μg/mL, 120 h, % growth, replicate 2
[13] = library screen at 2 μg/mL, % growth, replicate 1
[14] = library screen at 2 μg/mL, % growth, replicate 2

## CC(C)C[C@@H]1NC(=O)[C@H](Cc2c[nH]c3ccccc23)NC1=O [Cyclo(L-Leu-L-Trp)]
[1]; [4]
  Pf_120h_%Growth_Rep1: 80.44%
[1]; [5]
  Pf_120h_%Growth_Rep2: 87.76%
[2]; [6]
  Pf_72h_%Growth_Rep1: 84.12%
[2]; [7]
  Pf_72h_%Growth_Rep2: 86.68%
[3]; [8]
  Tg_72h_%Growth_Rep1: 106.88%
[3]; [9]
  Tg_72h_%Growth_Rep2: 106.90%

## CN1CCC2(c3cccc4c3NC3N(C)CCC43c3cccc4c3NC3N(C)CCC43C34CCN(C)C3Nc3c(C56CCN(C)C5Nc5ccccc56)cccc34)c3ccccc3NC12 (stereo not shown) [Psychotridine]
[1]; P. falciparum, 120 h, parasite screen 2 μg/mL, % growth, replicate 1
  Pf_120h_%Growth_Rep1: 15.63%
[1]; P. falciparum, 120 h, parasite screen 2 μg/mL, % growth, replicate 2
  Pf_120h_%Growth_Rep2: 4.30%
[2]; P. falciparum, parasite screen 2 μg/mL, % growth, replicate 1
  Pf_72h_%Growth_Rep1: 4.01%
[2]; P. falciparum, parasite screen 2 μg/mL, % growth, replicate 2
  Pf_72h_%Growth_Rep2: -3.25%
[3]; T. gondii, 2 μg/mL, mean of both replicates, growth (% of control)
  Mean: 39.57
[3]; [10]
  Replicate 1: 17.15
  Replicate 2: 61.99
[3]; T. gondii, parasite screen 2 μg/mL, % growth, replicate 1
  Tg_72h_%Growth_Rep1: 17.15%
[3]; T. gondii, parasite screen 2 μg/mL, % growth, replicate 2
  Tg_72h_%Growth_Rep2: 61.99%

## CN(C)[C@H]1C(O)=C(C(N)=O)C(=O)[C@@]2(O)C(O)=C3C(=O)c4c(O)cccc4[C@@](C)(O)[C@H]3[C@H](O)[C@@H]12 [Epioxytetracycline]
[1]; [11]
  Pf_120h_%Growth_Rep1: 99.19%
[1]; [12]
  Pf_120h_%Growth_Rep2: 96.08%
[2]; [13]
  Pf_72h_%Growth_Rep1: 86.72%
[2]; [14]
  Pf_72h_%Growth_Rep2: 78.69%
[3]; [13]
  Tg_72h_%Growth_Rep1: 152.95%
[3]; [14]
  Tg_72h_%Growth_Rep2: 107.04%

## CC[C@H]1OC(=O)C[C@@H](O)[C@H](C)[C@@H](O[C@@H]2O[C@H](C)[C@@H](O)[C@H](N(C)C)[C@H]2O)[C@@H](CCN2C[C@H](C)C[C@H](C)C2)C[C@@H](C)C(=O)/C=C/C(C)=C/[C@@H]1CO[C@@H]1O[C@H](C)[C@@H](O)[C@@H](OC)[C@H]1OC.O=P(O)(O)O [Tilmicosin phosphate, reference compound]
[1]; P. falciparum, 2 μg/mL, 120 h
  2) Growth (%) at 120 h: 7.83%
[1]; [4]
  Pf_120h_%Growth_Rep1: 10.28%
[1]; [5]
  Pf_120h_%Growth_Rep2: 5.38%
[1]; P. falciparum, growth at 72 h / growth at 120 h, 2 μg/mL
  3) Fold change (72 h/120 h): 2.8
[2]; P. falciparum, 2 μg/mL
  1) Growth (%) at 72 h: 22.07%
[2]; P. falciparum, 2 μg/mL, mean of both replicates, growth (% of control)
  Mean: 22.07
[2]; [6]
  Pf_72h_%Growth_Rep1: 4.49%
[2]; [7]
  Pf_72h_%Growth_Rep2: 39.64%
[3]; [8]
  Tg_72h_%Growth_Rep1: 41.21%
[3]; [9]
  Tg_72h_%Growth_Rep2: 38.33%

## C[C@@]12c3ccc4c(c3C(=O)c3occ(c31)[C@@H](O)C[C@H]2O)CCC4=O [Demethoxyviridiol]
[1]; [4]
  Pf_120h_%Growth_Rep1: 76.39%
[1]; [5]
  Pf_120h_%Growth_Rep2: 74.74%
[2]; [6]
  Pf_72h_%Growth_Rep1: 73.11%
[2]; [7]
  Pf_72h_%Growth_Rep2: 74.92%
[3]; [8]
  Tg_72h_%Growth_Rep1: 264.14%
[3]; [9]
  Tg_72h_%Growth_Rep2: 123.20%

## Cc1c2oc3c(C)ccc(C(=O)N[C@@H]4C(=O)N[C@H](C(C)C)C(=O)N5CCC[C@H]5C(=O)N(C)CC(=O)N(C)[C@@H](C(C)C)C(=O)O[C@@H]4C)c3nc-2c(C(=O)N[C@@H]2C(=O)N[C@H](C(C)C)C(=O)N3CCC[C@H]3C(=O)N(C)CC(=O)N(C)[C@@H](C(C)C)C(=O)O[C@@H]2C)c(N)c1=O [Actinomycin D] (I: T[dV]P[Sar][NMeV] / II: T[dV]P[Sar][NMeV]; ester I:1-I:C, II:1-II:C; linker I:N-II:N via Actinocin(9to1))
[1]; library screen at 2 μg/mL, 120 h, % growth, replicate 1, read-out: Pf_120h_%Growth_Rep1
  activity at 2 µg/mL: 7.65%
[1]; library screen at 2 μg/mL, 120 h, % growth, replicate 2, read-out: Pf_120h_%Growth_Rep2
  activity at 2 µg/mL: -5.71%
[2]; library screen at 2 μg/mL, % growth, replicate 1, read-out: Pf_72h_%Growth_Rep1
  activity at 2 µg/mL: 2.91%
[2]; library screen at 2 μg/mL, % growth, replicate 2, read-out: Pf_72h_%Growth_Rep2
  activity at 2 µg/mL: 5.02%
[3]; library screen at 2 μg/mL, % growth, replicate 1, read-out: Tg_72h_%Growth_Rep1
  percent parasite growth at 2 µg/mL: 2.02%
[3]; library screen at 2 μg/mL, % growth, replicate 2, read-out: Tg_72h_%Growth_Rep2
  percent parasite growth at 2 µg/mL: 0.47%

## CC1(C)[C@H](C(=O)O)N2C(=O)C[C@H]2S1(=O)=O [Sulbactam sodium]
[1]; P. falciparum, 120 h, parasite screen 2 μg/mL, % growth, replicate 1, read-out: Pf_120h_%Growth_Rep1
  activity at 2 µg/mL: 105%
[1]; P. falciparum, 120 h, parasite screen 2 μg/mL, % growth, replicate 2, read-out: Pf_120h_%Growth_Rep2
  activity at 2 µg/mL: 104%
[2]; P. falciparum, parasite screen 2 μg/mL, % growth, replicate 1, read-out: Pf_72h_%Growth_Rep1
  activity at 2 µg/mL: 90.2%
[2]; P. falciparum, parasite screen 2 μg/mL, % growth, replicate 2, read-out: Pf_72h_%Growth_Rep2
  activity at 2 µg/mL: 124%
[3]; T. gondii, parasite screen 2 μg/mL, % growth, replicate 1, read-out: Tg_72h_%Growth_Rep1
  percent parasite growth at 2 µg/mL: 134%
[3]; T. gondii, parasite screen 2 μg/mL, % growth, replicate 2, read-out: Tg_72h_%Growth_Rep2
  percent parasite growth at 2 µg/mL: 84.2%

## CCCCCC(=O)C(CCCC)c1oc(=O)c(CCCC)c(O)c1CCCC (stereo not shown) [Elasnin]
[1]; [11]
  Pf_120h_%Growth_Rep1: 85.68%
[1]; [12]
  Pf_120h_%Growth_Rep2: 81.51%
[2]; [13]
  Pf_72h_%Growth_Rep1: 87.43%
[2]; [14]
  Pf_72h_%Growth_Rep2: 85.83%
[3]; [13]
  Tg_72h_%Growth_Rep1: 103.90%
[3]; [14]
  Tg_72h_%Growth_Rep2: 75.71%
